This note sets out measurements from patent publication EP0558673B1, “RETROVIRAL PROTEASE INHIBITORS” (MONSANTO COMPANY, priority 1990, dated 1992).

Assay [1] has as its target T1, HIV protease (Human immunodeficiency virus type 1 group M subtype B, UniProt P04585).
T1 construct: final enzyme concentration of 12.3 nanomolar, based on a molecular weight of 10,780
Briefly: HIV protease enzyme assay (fluorescence, substrate 2-aminobenzoyl-Ile-Nle-Phe(p-NO₂)-Gln-ArgNH₂). Type of assay: biochemical. The settings on record: Table 16; enzyme 12.3 nanomolar, substrate 80 µM, pH 6.4, ambient temperature; read-out: IC₅₀. An excerpt: The compounds of the present invention are effective HIV protease inhibitors. Utilizing an enzyme assay as described below, the compounds set forth in the examples herein disclosed inhibited the HIV enzyme. The preferred compounds of the present invention and their calculated IC₅₀ (inhibiting concentration 50%, i.e., the concentration at which the inhibitor compound reduces enzyme activity by 50%) values are shown in Table 16. The enzyme method is described below. The substrate is 2-aminobenzoyl-Ile-Nle-Phe(p-NO₂)-Gln-ArgNH₂. The positive control is MVT-101 (Miller, M. et al, Science, 246, 1149 (1989)] The assay conditions are as follows: Assay buffer: 20 mM sodium phosphate, pH 6.4 20% glycerol 1 mM EDTA 1 mM DTT 0.1% CHAPS
The above described substrate is dissolved in DMSO, then diluted 10 fold in assay buffer. Final substrate concentration in the assay is 80 µM.
HIV protease is diluted in the assay buffer to a final enzyme concentration of 12.3 nanomolar, based on a molecular weight of 10,780.
The final concentration of DMSO is 14% and the final concentration of glycerol is 18%. The test compound is dissolved in DMSO and diluted in DMSO to 10x the test concentration; 10µl of the enzyme preparation is added, the materials mixed and then the mixture is incubated at ambient temperature for 15 minutes. The enzyme reaction is initiated by the addition of 40µl of substrate. The increase in fluorescence is monitored at 4 time points (0, 8, 16 and 24 minutes) at ambient temperature. Each assay is carried out in duplicate wells.

Assay [2] relates to HIV-1. Briefly: CEM cell assay: HIV inhibition assay of acutely infected cells (tetrazolium/MTT colorimetric). As to conditions: Human immunodeficiency virus 1, CCRF-CEM, 168 h; Table 17; CEM cells acutely infected with HIV-1, 7 days, MTT readout; read-out: EC₅₀. Type of assay: cell-based. How it is done:
The effectiveness of the compounds listed in Table 16 were determined in the above-described enzyme assay and in a CEM cell assay.
Methods 20, 309-321 (1988).

As for `CC(C)CCN(C[C@@H](O)[C@H](Cc1ccccc1)NC(=O)[C@H](CC(N)=O)NS(=O)(=O)CCc1ccccc1)C(=O)NC(C)(C)C` (relative stereo) [Compound 3, 3-Thia-4,7,11-triazadodecan-12-amide, N-(1,1-dimethylethyl)-5-(2-amino-2-oxo-ethyl)-9-hydroxy-11-(3-methylbutyl)-6-oxo-8-(phenylmethyl)-1-phenyl-, 2,2-dioxide-,[5S-,(5R*,8R*,9S*)]], in assay [1], the IC50 was 24 nM. Turning to `CC(C)CCN(C[C@@H](O)[C@H](Cc1ccccc1)NC(=O)[C@@H](NS(=O)(=O)CCc1ccccc1)C(C)(C)C)C(=O)NC(C)(C)C` (relative stereo) [Compound 1, 3-Thia-4,7,11-triazadodecan-12-amide, N,5-bis(1,1-dimethylethyl)-9-hydroxy-11-(3-methylbutyl)-6-oxo-8-(phenylmethyl)-1-phenyl-, 2,2-dioxide-,5S-,(5R*,8R*,9S*)]], the EC50 in assay [2] was 510 nM. Also, in assay [1], the IC50 amounted to 22 nM.

For `CC(C)CCN(C[C@@H](O)[C@H](Cc1ccccc1)NC(=O)[C@@H](NS(=O)(=O)CCc1ccccc1)C(C)C)C(=O)NC(C)(C)C` (relative stereo) [Compound 2, 3-Thia-4,7,11-triazadodecan-12-amide, N-(1,1-dimethylethyl)-5-(1-methylethyl)-9-hydroxy-11-(3-methylbutyl)-6-oxo-8-(phenylmethyl)-1-phenyl-, 2,2-dioxide-,[5S-,(5R*,8R*,9S*)]], the EC50 in assay [2] was 440 nM. Besides, the IC50 in assay [1] stood at 29 nM.
